Patent publication US10670605B2, “Cysteine reactive probes and uses thereof” (The Scripps Research Institute, priority 2015, dated 2020)

Columns and labels:
Experiment in all cases: Competitive isoTOP-ABPP in situ (fragment-treated cells)
Type in all cases: cell-based
[1] = target: T1, cysteines in MDA-MB-231 and Ramos cells (Homo sapiens, UniProt Q5T440)
T1 sequence (Q5T440 40-356): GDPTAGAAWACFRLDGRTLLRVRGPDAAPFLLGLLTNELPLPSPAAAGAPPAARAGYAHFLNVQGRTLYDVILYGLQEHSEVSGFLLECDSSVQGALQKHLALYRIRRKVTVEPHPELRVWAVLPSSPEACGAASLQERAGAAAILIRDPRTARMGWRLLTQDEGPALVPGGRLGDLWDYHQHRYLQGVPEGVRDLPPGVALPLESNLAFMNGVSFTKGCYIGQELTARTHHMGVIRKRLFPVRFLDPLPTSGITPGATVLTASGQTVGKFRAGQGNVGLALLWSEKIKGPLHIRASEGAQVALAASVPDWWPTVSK

[2] = target: T2, cysteines in MDA-MB-231 and Ramos cells (Homo sapiens, UniProt Q9NPH0)
T2 sequence (Q9NPH0 33-428): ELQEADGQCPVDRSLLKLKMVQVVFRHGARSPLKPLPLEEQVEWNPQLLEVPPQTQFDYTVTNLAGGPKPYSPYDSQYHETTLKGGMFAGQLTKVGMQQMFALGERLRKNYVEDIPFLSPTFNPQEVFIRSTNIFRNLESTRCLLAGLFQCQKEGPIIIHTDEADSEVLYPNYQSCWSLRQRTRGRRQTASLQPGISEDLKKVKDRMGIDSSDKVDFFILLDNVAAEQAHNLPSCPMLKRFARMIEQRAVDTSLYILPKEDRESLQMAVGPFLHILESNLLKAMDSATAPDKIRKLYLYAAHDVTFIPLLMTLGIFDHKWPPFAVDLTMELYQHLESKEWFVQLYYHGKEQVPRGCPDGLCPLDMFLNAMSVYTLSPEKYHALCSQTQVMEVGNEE

[3] = target: T3, cysteines in MDA-MB-231 and Ramos cells (Homo sapiens, UniProt P35754)
T3 sequence (P35754 1-106): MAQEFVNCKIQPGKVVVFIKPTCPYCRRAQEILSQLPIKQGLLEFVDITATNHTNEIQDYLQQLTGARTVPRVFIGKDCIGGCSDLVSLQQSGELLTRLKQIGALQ

[4] = target: cysteines in MDA-MB-231 and Ramos cells (Homo sapiens, UniProt Q9UNI6); settings: for isoTOP-ABPP ratio, cysteine Q9UNI6_C265 / isoTOP-ABPP ratio Q9UNI6_C265: 200 μM, insitu, 231
Sequence of cysteines in MDA-MB-231 and Ramos cells (Homo sapiens, UniProt Q9UNI6) (Q9UNI6 whole entry): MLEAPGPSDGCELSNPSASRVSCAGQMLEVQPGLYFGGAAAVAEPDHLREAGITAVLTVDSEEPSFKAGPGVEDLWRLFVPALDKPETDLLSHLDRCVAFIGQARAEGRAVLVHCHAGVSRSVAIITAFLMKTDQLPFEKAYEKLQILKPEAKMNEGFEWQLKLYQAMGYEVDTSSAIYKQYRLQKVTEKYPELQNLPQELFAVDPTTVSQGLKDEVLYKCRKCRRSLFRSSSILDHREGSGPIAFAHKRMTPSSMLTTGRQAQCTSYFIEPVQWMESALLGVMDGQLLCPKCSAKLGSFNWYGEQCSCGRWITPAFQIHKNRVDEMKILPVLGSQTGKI

[5] = target: T4, cysteines in MDA-MB-231 and Ramos cells (Homo sapiens, UniProt O75717)
T4 sequence (O75717 1-1129): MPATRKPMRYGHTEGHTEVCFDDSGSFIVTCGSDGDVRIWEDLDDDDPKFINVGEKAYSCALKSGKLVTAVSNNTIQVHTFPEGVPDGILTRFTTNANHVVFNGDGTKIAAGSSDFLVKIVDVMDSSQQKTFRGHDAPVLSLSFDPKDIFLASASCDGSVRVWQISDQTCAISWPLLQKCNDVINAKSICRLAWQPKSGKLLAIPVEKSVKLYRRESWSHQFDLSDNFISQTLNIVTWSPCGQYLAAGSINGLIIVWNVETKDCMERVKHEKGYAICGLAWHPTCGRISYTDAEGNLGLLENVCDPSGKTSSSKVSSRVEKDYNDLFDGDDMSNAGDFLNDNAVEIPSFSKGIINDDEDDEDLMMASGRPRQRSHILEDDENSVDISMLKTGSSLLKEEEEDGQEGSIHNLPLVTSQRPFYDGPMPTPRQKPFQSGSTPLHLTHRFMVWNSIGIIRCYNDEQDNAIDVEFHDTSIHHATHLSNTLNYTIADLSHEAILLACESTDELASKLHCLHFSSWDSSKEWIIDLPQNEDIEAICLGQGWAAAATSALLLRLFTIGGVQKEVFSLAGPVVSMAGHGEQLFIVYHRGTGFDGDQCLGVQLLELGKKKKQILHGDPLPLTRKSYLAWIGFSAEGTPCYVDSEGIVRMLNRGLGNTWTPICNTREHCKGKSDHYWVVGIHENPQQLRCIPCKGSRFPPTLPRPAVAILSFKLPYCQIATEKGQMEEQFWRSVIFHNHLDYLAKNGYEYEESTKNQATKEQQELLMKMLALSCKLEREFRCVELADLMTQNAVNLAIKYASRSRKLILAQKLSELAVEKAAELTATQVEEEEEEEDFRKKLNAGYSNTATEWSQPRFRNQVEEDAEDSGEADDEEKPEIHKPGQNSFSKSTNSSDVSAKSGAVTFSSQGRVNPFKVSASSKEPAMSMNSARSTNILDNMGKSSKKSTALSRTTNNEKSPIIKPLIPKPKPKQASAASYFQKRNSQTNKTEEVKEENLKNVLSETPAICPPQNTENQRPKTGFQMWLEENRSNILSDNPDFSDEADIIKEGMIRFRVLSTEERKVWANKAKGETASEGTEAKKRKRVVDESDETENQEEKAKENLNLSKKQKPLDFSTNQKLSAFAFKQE

COc1ccc2c(c1)CCCN2C(=O)CCl [compound 2] was tested, and the “isoTOP-ABPP reactivity Q5T440_C170 IBA57” value ([1]; 200 μM, insitu, 231) was 14.0.
For COc1ccc(C2CC(c3cccs3)=NN2C(=O)CCl)cc1 (stereo not shown) [compound 4], the “isoTOP-ABPP reactivity Q9NPH0_C267 ACP6” value ([2]; 100 μM in situ 231) was 20.0, the “isoTOP-ABPP reactivity P35754_C23 GLRX” value ([3]; 100 μM in situ 231) was 20.0 and the “isoTOP-ABPP reactivity Q5T440_C170 IBA57” value ([1]; 100 μM in situ 231) was 1.5. The “isoTOP-ABPP reactivity Q9UNI6_C265 DUSP12” value ([4]; 100 μM in situ 231) was 0.8.
With COc1cc2c(cc1OC)CN(C(=O)CCl)CC2 [compound 8] the “isoTOP-ABPP reactivity O75717_C773 WDHDl” value ([5]; 200 μM, insitu, 231) was 4.2 and the “isoTOP-ABPP reactivity Q9NPH0_C267 ACP6” value ([2]; 200 μM, insitu, 231) was 20.0.
O=C(CCl)N1CCN(S(=O)(=O)c2ccccc2F)CC1 [compound 10] was tested, and the “isoTOP-ABPP ratio, cysteine O75717_C773” value ([5]; 200 μM, insitu, 231) was 2.2, the “isoTOP-ABPP ratio, cysteine Q9NPH0_C267” value ([2]; 200 μM, insitu, 231) was 13.4 and the “isoTOP-ABPP ratio P35754_C23” value ([3]; 200 μM, insitu, ramos) was 13.0. For the same molecule, the “isoTOP-ABPP ratio Q5T440_C170” value ([1]; 200 μM, insitu, 231) was 5.7 and the “isoTOP-ABPP ratio, cysteine Q9UNI6_C265” value [4] was 1.2.
In the case of Cn1cc(S(=O)(=O)N2CCOCC2)cc1C(=O)NC(=O)CCl [compound 11], the “isoTOP-ABPP ratio, cysteine O75717_C773” value ([5]; 100 μM in situ 231) is reported as 1.2 and the “isoTOP-ABPP ratio P35754_C23” value ([3]; 100 μM in situ 231) is reported as 20.0.
For O=C(CCl)NC(=O)NC12CC3CC(CC(C3)C1)C2 [compound 12], the “isoTOP-ABPP ratio P35754_C23” value ([3]; 200 μM, insitu, 231) was 20.0 and the “isoTOP-ABPP ratio, cysteine Q9UNI6_C265” value [4] was 1.2.
With O=C(CCl)NCCc1c[nH]c2ccccc12 [compound 13] the “isoTOP-ABPP ratio, cysteine O75717_C773” value ([5]; 200 μM, insitu, 231) was 1.1 and the “isoTOP-ABPP ratio Q5T440_C170” value ([1]; 200 μM, insitu, 231) was 1.2.
In the case of O=C(CCl)NC12CC3CC(CC(C3)C1)C2 [compound 21], the “isoTOP-ABPP ratio Q5T440_C170” value ([1]; 200 μM, insitu, 231) is reported as 1.6.
In the case of CC(C)CCOCCNC(=O)CCl [compound 27], the “isoTOP-ABPP ratio Q9NPH0_C267” value ([2]; 200 μM, insitu, 231) is reported as 1.3, the “isoTOP-ABPP ratio P35754_C23” value ([3]; 200 μM, insitu, 231) is reported as 0.7 and the “isoTOP-ABPP ratio Q9UNI6_C265” value [4] is reported as 0.6.
COc1ccccc1OCCNC(=O)CCl [compound 28] was tested, and the “isoTOP-ABPP ratio P35754_C23” value ([3]; 200 μM, insitu, 231) was 1.4 and the “isoTOP-ABPP ratio Q9UNI6_C265” value [4] was 0.8.
With O=C(CCl)N1CCN(CC(=O)N2CCOCC2)CC1 [compound 29] the “isoTOP-ABPP ratio Q9NPH0_C267” value ([2]; 200 μM, insitu, ramos) was 2.1 and the “isoTOP-ABPP ratio Q5T440_C170” value ([1]; 200 μM, insitu, ramos) was 1.3.
For C=CC(=O)N(Cc1cccnc1)c1cc(C(F)(F)F)cc(C(F)(F)F)c1 [compound 31], the “isoTOP-ABPP ratio P35754_C23” value ([3]; 200 μM, insitu, 231) was 0.6 and the “isoTOP-ABPP ratio P35754_C23” value ([3]; 200 μM, insitu, ramos) was 1.1.
C=CC(=O)Nc1cc(F)c(N2CCN(C(=O)OC(C)(C)C)CC2)c(F)c1 [compound 38] was tested, and the “isoTOP-ABPP ratio O75717_C773” value ([5]; 200 μM, insitu, 231) was 2.3, the “isoTOP-ABPP ratio P35754_C23” value ([3]; 200 μM, insitu, 231) was 0.9 and the “isoTOP-ABPP ratio Q9UNI6_C265” value [4] was 1.0.
With Cc1ccc(C=C(C#N)C(=O)NCCN2CCOCC2)cc1 [compound 41] the “isoTOP-ABPP ratio O75717_C773” value ([5]; 200 μM, insitu, 231) was 1.0, the “isoTOP-ABPP ratio P35754_C23” value ([3]; 200 μM, insitu, 231) was 0.5 and the “isoTOP-ABPP ratio Q5T440_C170” value ([1]; 200 μM, insitu, 231) was 0.7. The “isoTOP-ABPP ratio Q9UNI6_C265” value [4] was 1.0.
With CC1CCc2ccccc2N1C(=O)CCl (stereo not shown) [compound 45] the “isoTOP-ABPP ratio O75717_C773” value ([5]; 200 μM, insitu, 231) was 3.6, the “isoTOP-ABPP ratio Q9NPH0_C267” value ([2]; 200 μM, insitu, 231) was 20.0 and the “isoTOP-ABPP ratio P35754_C23” value ([3]; 200 μM, insitu, 231) was 16.3. For the same molecule, the “isoTOP-ABPP ratio Q5T440_C170” value ([1]; 200 μM, insitu, 231) was 3.5 and the “isoTOP-ABPP ratio Q9UNI6_C265” value [4] was 7.5.
